Measurements as given in PubChem BioAssay (NCI).
Several values for one entry are separate records, joined by “and”; a condition that tells them apart may be missing. Equal entries are not always repeated.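 A five-concentration, 48-hour dose response in 96-well plates underlies each endpoint, interpolated linearly between surrounding concentrations. The concentration for 50% growth inhibition is given as GI50. TGI denotes the concentration required for complete inhibition of growth.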

What was measured:
Assay in all cases: NCI-60 cell line screen, 48 h
KM12 colon = test system: KM12 colon
A498 renal = test system: A498 renal
HCT-116 colon = test system: HCT-116 colon
HCC-2998 colon = test system: HCC-2998 colon
CCRF-CEM leukemia = test system: CCRF-CEM leukemia
MDA-MB-231 breast = test system: MDA-MB-231 breast
MDA-MB-435 = test system: MDA-MB-435
TK-10 renal = test system: TK-10 renal
HOP-92 NSCLC = test system: HOP-92 NSCLC
U251 CNS = test system: U251 CNS

## CC(=O)CCc1ccc(OC2OC(COC(=O)c3cc(O)c(O)c(O)c3)C(O)C(O)C2OC(=O)/C=C/c2ccccc2)cc1 (stereo unspecified)
KM12 colon
  GI50: 21 µM
  TGI: 43.5 µM
A498 renal
  GI50: 23.2 µM
  TGI: 48 µM
HCT-116 colon
  GI50: 15.1 µM
  TGI: 29.9 µM
HCC-2998 colon
  GI50: 15.3 µM
  TGI: 30.2 µM
CCRF-CEM leukemia
  GI50: 20.7 µM
  TGI: 52.2 µM
MDA-MB-231 breast
  GI50: 19.6 µM
  TGI: 44.5 µM
MDA-MB-435
  GI50: 16.8 µM
  TGI: 37.1 µM
TK-10 renal
  GI50: 23.8 µM
  TGI: 61.3 µM
HOP-92 NSCLC
  GI50: 30.4 µM
  TGI: > 100 µM
U251 CNS
  GI50: 11.9 µM
  TGI: 30.1 µM

## S=C(N/N=C(/c1ccccc1)c1ccccn1)N1CCCCC1
KM12 colon
  GI50: 0.00123 µM
  TGI: 1.79 µM and 2.11 µM
A498 renal
  GI50: 0.0815 µM
  TGI: 1.43 µM and 2.37 µM
HCT-116 colon
  GI50: < 0.001 µM
  TGI: 1.6 µM and 1.56 µM
HCC-2998 colon
  TGI: 2.1 µM
CCRF-CEM leukemia
  GI50: < 0.001 µM
  TGI: 0.0332 µM
MDA-MB-231 breast
  GI50: < 0.001 µM
  TGI: 2.42 µM and 2.21 µM
MDA-MB-435
  TGI: 1.98 µM and 1.85 µM
TK-10 renal
  TGI: 1.97 µM
HOP-92 NSCLC
  GI50: 1.16 µM
  TGI: 2.27 µM and 2.81 µM
U251 CNS
  GI50: < 0.001 µM
  TGI: 1.45 µM and 1.76 µM

## Nc1nc(N)c(Cn2ccnc2)c(=O)[nH]1
KM12 colon
  TGI: > 100 µM
A498 renal
  TGI: > 100 µM
HCT-116 colon
  TGI: > 100 µM
MDA-MB-231 breast
  TGI: > 100 µM
MDA-MB-435
  TGI: > 100 µM
TK-10 renal
  TGI: > 100 µM
HOP-92 NSCLC
  TGI: > 100 µM
U251 CNS
  TGI: > 100 µM

## Cc1cc(Cl)cc2c(N=Nc3ccccc3[N+](=O)[O-])c(O)[nH]c12
KM12 colon
  TGI: > 100 µM
A498 renal
  TGI: > 100 µM
HCT-116 colon
  TGI: > 100 µM
HCC-2998 colon
  TGI: > 100 µM
CCRF-CEM leukemia
  TGI: > 100 µM
MDA-MB-231 breast
  TGI: > 100 µM
MDA-MB-435
  TGI: > 100 µM
TK-10 renal
  TGI: > 100 µM
HOP-92 NSCLC
  TGI: > 100 µM
U251 CNS
  TGI: > 100 µM

## Cn1cc(C2=C(c3cccc(N)c3)C(=O)NC2=O)c2ccccc21
KM12 colon
  GI50: 7.95 µM
  TGI: > 20 µM
A498 renal
  GI50: 1.13 µM
  TGI: > 6.7 µM
HCT-116 colon
  GI50: 7.94 µM
  TGI: > 25 µM
HCC-2998 colon
  GI50: > 25 µM
  TGI: > 25 µM
CCRF-CEM leukemia
  GI50: 11.2 µM
  TGI: > 25 µM
MDA-MB-231 breast
  GI50: 4.52 µM
  TGI: > 25 µM
MDA-MB-435
  GI50: 18.7 µM
  TGI: > 25 µM
TK-10 renal
  GI50: > 25 µM
  TGI: > 25 µM
HOP-92 NSCLC
  GI50: > 25 µM
  TGI: > 25 µM
U251 CNS
  GI50: 10.4 µM
  TGI: > 25 µM

## CCOc1ccc(-c2cnnn2-c2nonc2-n2cccc2)cc1
KM12 colon
  GI50: 0.125 µM
  TGI: 10.1 µM
A498 renal
  GI50: 0.203 µM
  TGI: 0.924 µM
HCT-116 colon
  GI50: 0.226 µM
  TGI: 1.46 µM
HCC-2998 colon
  GI50: 0.364 µM
  TGI: > 33 µM
CCRF-CEM leukemia
  GI50: 0.296 µM
  TGI: > 100 µM
MDA-MB-231 breast
  GI50: 0.337 µM
  TGI: 5.03 µM
MDA-MB-435
  GI50: 0.0345 µM
  TGI: 0.168 µM
TK-10 renal
  GI50: 0.597 µM
  TGI: > 100 µM
HOP-92 NSCLC
  GI50: 0.401 µM
  TGI: 9.27 µM
U251 CNS
  GI50: 0.339 µM
  TGI: > 78.7 µM

## O=C(Nc1ccc(F)cc1)Nc1ccccc1CNc1nc(Nc2ccc(OCCN3CCCC3)cc2)ncc1Cl
KM12 colon
  GI50: 1.81 µM
  TGI: 6.35 µM
A498 renal
  GI50: 1.42 µM
  TGI: 8.21 µM
HCC-2998 colon
  GI50: 2.73 µM
  TGI: 9.27 µM
CCRF-CEM leukemia
  GI50: 1.6 µM
  TGI: 5.93 µM
MDA-MB-231 breast
  GI50: 0.871 µM
  TGI: 1.77 µM
MDA-MB-435
  GI50: 1.03 µM
  TGI: 2.28 µM
TK-10 renal
  GI50: 1.77 µM
  TGI: 6.8 µM
HOP-92 NSCLC
  GI50: 0.849 µM
  TGI: 2.49 µM
U251 CNS
  GI50: 1.28 µM
  TGI: 3.73 µM

## Cn1ccnc1C(=O)/C=C/c1ccc(C(=O)Nc2ccc(S(F)(F)(F)(F)F)cc2)cc1
KM12 colon
  GI50: 2.77 µM
  TGI: > 14.3 µM
HCT-116 colon
  GI50: 0.854 µM
  TGI: > 14.3 µM
HCC-2998 colon
  GI50: 2.93 µM
  TGI: > 14.3 µM
CCRF-CEM leukemia
  GI50: 0.738 µM
  TGI: > 14.3 µM
MDA-MB-231 breast
  GI50: 2.33 µM
  TGI: > 14.3 µM
MDA-MB-435
  GI50: 3.04 µM
  TGI: > 14.3 µM
TK-10 renal
  GI50: 4 µM
  TGI: > 14.3 µM
HOP-92 NSCLC
  GI50: 3.03 µM
  TGI: > 14.3 µM
U251 CNS
  GI50: 0.506 µM
  TGI: > 14.3 µM

## O=C1c2cccnc2C(=O)C2C3C=CC(C3)C12 (stereo unspecified)
KM12 colon
  TGI: 32 µM
A498 renal
  TGI: 44.7 µM
HCT-116 colon
  TGI: 14 µM
HCC-2998 colon
  TGI: 29.9 µM
MDA-MB-231 breast
  TGI: 9.97 µM
MDA-MB-435
  TGI: 5.7 µM
TK-10 renal
  TGI: 31.9 µM
HOP-92 NSCLC
  TGI: 27 µM
U251 CNS
  TGI: 16.7 µM

## COc1ccc2c(c1O)C13CCN(C)C(C2)C1CCC1(C3)OCCO1 (stereo unspecified)
KM12 colon
  TGI: > 100 µM
HCT-116 colon
  TGI: > 100 µM
HCC-2998 colon
  TGI: > 100 µM
MDA-MB-231 breast
  TGI: > 100 µM
MDA-MB-435
  TGI: > 100 µM
TK-10 renal
  TGI: > 100 µM
HOP-92 NSCLC
  TGI: > 100 µM
U251 CNS
  TGI: > 100 µM

## CCOC(=O)c1sc2ncn(Cc3cccc(Br)c3)c(=O)c2c1C
KM12 colon
  GI50: 28.9 µM
  TGI: > 100 µM
A498 renal
  GI50: 18.2 µM
  TGI: 80.1 µM
HCT-116 colon
  GI50: 30.7 µM
  TGI: 93.8 µM
HCC-2998 colon
  GI50: 66.8 µM
  TGI: > 100 µM
MDA-MB-231 breast
  GI50: 12.5 µM
  TGI: 74.8 µM
MDA-MB-435
  GI50: 54.1 µM
  TGI: > 100 µM
HOP-92 NSCLC
  GI50: 31.1 µM
  TGI: > 100 µM
U251 CNS
  GI50: 31.7 µM
  TGI: > 100 µM

## CCOC(=O)/C(=N\OC)C(O)C(F)(F)F (stereo unspecified)
KM12 colon
  TGI: > 100 µM
A498 renal
  TGI: > 100 µM
HCT-116 colon
  TGI: > 100 µM
HCC-2998 colon
  TGI: > 100 µM
CCRF-CEM leukemia
  TGI: > 100 µM
MDA-MB-231 breast
  TGI: > 100 µM
MDA-MB-435
  TGI: > 100 µM
TK-10 renal
  TGI: > 100 µM
U251 CNS
  TGI: > 100 µM

## COc1cc2c(cc1O)-c1c(cnn1-c1ccc([N+](=O)[O-])cc1)CCC2
KM12 colon
  TGI: 31.7 µM
A498 renal
  TGI: 80.3 µM
HCT-116 colon
  TGI: 71.4 µM
CCRF-CEM leukemia
  TGI: 30.6 µM
MDA-MB-231 breast
  TGI: 33.2 µM
MDA-MB-435
  TGI: 48.6 µM
TK-10 renal
  TGI: 32.6 µM
HOP-92 NSCLC
  TGI: > 100 µM
U251 CNS
  TGI: 24.9 µM

## N#C/C(=N\Nc1ccc(Cl)cc1)C(=O)Nc1cc(-c2ccccc2)nn1-c1ccccc1
KM12 colon
  GI50: 2.92 µM
  TGI: > 100 µM
HCT-116 colon
  GI50: 2.7 µM
  TGI: > 100 µM
HCC-2998 colon
  GI50: 3.74 µM
  TGI: > 100 µM
CCRF-CEM leukemia
  GI50: 2.27 µM
  TGI: > 100 µM
MDA-MB-231 breast
  GI50: 2.86 µM
  TGI: > 100 µM
MDA-MB-435
  GI50: 2.79 µM
  TGI: > 100 µM
TK-10 renal
  GI50: 4.82 µM
  TGI: > 100 µM
HOP-92 NSCLC
  GI50: 1.07 µM
  TGI: 4.49 µM
U251 CNS
  GI50: 3.08 µM
  TGI: > 100 µM

## C#CCN(Cc1nc2cc(C(F)(F)F)ccc2nc1-c1ccccc1)c1ccc(OC(F)(F)F)cc1
KM12 colon
  GI50: 29.1 µM
  TGI: 78.8 µM
A498 renal
  GI50: 50.1 µM
  TGI: > 100 µM
HCT-116 colon
  GI50: 25 µM
  TGI: > 100 µM
HCC-2998 colon
  GI50: 30.3 µM
  TGI: 91.9 µM
MDA-MB-231 breast
  GI50: 28.4 µM
  TGI: > 100 µM
MDA-MB-435
  GI50: 39.4 µM
  TGI: > 100 µM
TK-10 renal
  GI50: 78.9 µM
  TGI: > 100 µM
HOP-92 NSCLC
  GI50: 18.5 µM
  TGI: 77.3 µM
U251 CNS
  GI50: 48.8 µM
  TGI: > 100 µM

## Cn1cc(C2=C(c3cn(CCO)c4ccccc34)C(=O)NC2=O)c2ccccc21
KM12 colon
  GI50: 2 µM
  TGI: 9.4 µM
A498 renal
  GI50: 1.45 µM
  TGI: 7.78 µM
HCT-116 colon
  GI50: 1.49 µM
  TGI: > 25 µM
HCC-2998 colon
  GI50: 5.56 µM
  TGI: > 23.6 µM
CCRF-CEM leukemia
  GI50: 1.37 µM
  TGI: > 20 µM
MDA-MB-231 breast
  GI50: 5.98 µM
  TGI: > 22.4 µM
MDA-MB-435
  GI50: 0.746 µM
  TGI: > 25 µM
TK-10 renal
  GI50: 4.58 µM
  TGI: 15.5 µM
U251 CNS
  GI50: 1.98 µM
  TGI: 13.7 µM
